Measurements reported in patent US8192962B2, “Processes for detecting toxic substances” (Daikin Industries, Ltd., priority 2001, dated 2012).

System: Transport facilitation protein genes
Experiment: DNA chip mRNA expression in yeast, transport facilitation protein genes (Table 5)
Assay type: cell-based, Saccharomyces cerevisiae S288C
How it was run: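 Ratios compare mRNA levels in stressed and control S. cerevisiae. Each toxicant was applied for two hours to log-phase cultures at 25° C. at a sub-lethal, growth-inhibiting level; fluorescent cDNA (Cy3- or Cy5-dUTP) was hybridized to a genome-wide yeast chip for over 12 h at 65° C.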

manganese ethylenebis(dithiocarbamate) [(8)]
The level of expressed mRNA in the presence of chemical substance/The level of expressed mRNA in the absence of chemical substance (yeast gene YGR224W): 0.6
The level of expressed mRNA in the presence of chemical substance/The level of expressed mRNA in the absence of chemical substance (yeast gene YGR260W): 0.5
The level of expressed mRNA in the presence of chemical substance/The level of expressed mRNA in the absence of chemical substance (yeast gene YGR281W): 0.7
The level of expressed mRNA in the presence of chemical substance/The level of expressed mRNA in the absence of chemical substance (yeast gene YHL035C): 1.1
The level of expressed mRNA in the presence of chemical substance/The level of expressed mRNA in the absence of chemical substance (yeast gene YHL040C): 1.5
The level of expressed mRNA in the presence of chemical substance/The level of expressed mRNA in the absence of chemical substance (yeast gene YHL047C): 1.5
The level of expressed mRNA in the presence of chemical substance/The level of expressed mRNA in the absence of chemical substance (yeast gene YHR026W): 1.6
The level of expressed mRNA in the presence of chemical substance/The level of expressed mRNA in the absence of chemical substance (yeast gene YHR092C): 1.5
The level of expressed mRNA in the presence of chemical substance/The level of expressed mRNA in the absence of chemical substance (yeast gene YHR094C): 1.2
The level of expressed mRNA in the presence of chemical substance/The level of expressed mRNA in the absence of chemical substance (yeast gene YHR175W): 0.9
The level of expressed mRNA in the presence of chemical substance/The level of expressed mRNA in the absence of chemical substance (yeast gene YIL006W): 0.6
The level of expressed mRNA in the presence of chemical substance/The level of expressed mRNA in the absence of chemical substance (yeast gene YIL022W): 0.8
The level of expressed mRNA in the presence of chemical substance/The level of expressed mRNA in the absence of chemical substance (yeast gene YIL056W): 0.7
The level of expressed mRNA in the presence of chemical substance/The level of expressed mRNA in the absence of chemical substance (yeast gene YIL088C): 0.8
The level of expressed mRNA in the presence of chemical substance/The level of expressed mRNA in the absence of chemical substance (yeast gene YJL034W): 1.5
The level of expressed mRNA in the presence of chemical substance/The level of expressed mRNA in the absence of chemical substance (yeast gene YJL212C): 0.7
The level of expressed mRNA in the presence of chemical substance/The level of expressed mRNA in the absence of chemical substance (yeast gene YJL219W): 1.5
The level of expressed mRNA in the presence of chemical substance/The level of expressed mRNA in the absence of chemical substance (yeast gene YJR077C): 0.8
The level of expressed mRNA in the presence of chemical substance/The level of expressed mRNA in the absence of chemical substance (yeast gene YJR106W): 0.9
The level of expressed mRNA in the presence of chemical substance/The level of expressed mRNA in the absence of chemical substance (yeast gene YJR121W): 0.7
The level of expressed mRNA in the presence of chemical substance/The level of expressed mRNA in the absence of chemical substance (yeast gene YKL016C): 1.6
The level of expressed mRNA in the presence of chemical substance/The level of expressed mRNA in the absence of chemical substance (yeast gene YKL146W): 0.8
The level of expressed mRNA in the presence of chemical substance/The level of expressed mRNA in the absence of chemical substance (yeast gene YKR039W): 1.0
The level of expressed mRNA in the presence of chemical substance/The level of expressed mRNA in the absence of chemical substance (yeast gene YKR067W): 0.8
The level of expressed mRNA in the presence of chemical substance/The level of expressed mRNA in the absence of chemical substance (yeast gene YLL028W): 0.7
The level of expressed mRNA in the presence of chemical substance/The level of expressed mRNA in the absence of chemical substance (yeast gene YLR081W): 0.9
The level of expressed mRNA in the presence of chemical substance/The level of expressed mRNA in the absence of chemical substance (yeast gene YLR295C): 1.2
The level of expressed mRNA in the presence of chemical substance/The level of expressed mRNA in the absence of chemical substance (yeast gene YLR348C): 0.9
The level of expressed mRNA in the presence of chemical substance/The level of expressed mRNA in the absence of chemical substance (yeast gene YLR378C): 0.5
The level of expressed mRNA in the presence of chemical substance/The level of expressed mRNA in the absence of chemical substance (yeast gene YMR011W): 1.1
The level of expressed mRNA in the presence of chemical substance/The level of expressed mRNA in the absence of chemical substance (yeast gene YMR162C): 0.8
The level of expressed mRNA in the presence of chemical substance/The level of expressed mRNA in the absence of chemical substance (yeast gene YMR203W): 0.7
The level of expressed mRNA in the presence of chemical substance/The level of expressed mRNA in the absence of chemical substance (yeast gene YNL055C): 0.7
The level of expressed mRNA in the presence of chemical substance/The level of expressed mRNA in the absence of chemical substance (yeast gene YNL259C): 1.5
The level of expressed mRNA in the presence of chemical substance/The level of expressed mRNA in the absence of chemical substance (yeast gene YNR072W): 0.9
The level of expressed mRNA in the presence of chemical substance/The level of expressed mRNA in the absence of chemical substance (yeast gene YOL119C): 2.0
The level of expressed mRNA in the presence of chemical substance/The level of expressed mRNA in the absence of chemical substance (yeast gene YOL156W): 1.0
The level of expressed mRNA in the presence of chemical substance/The level of expressed mRNA in the absence of chemical substance (yeast gene YOL163W): 1.1
The level of expressed mRNA in the presence of chemical substance/The level of expressed mRNA in the absence of chemical substance (yeast gene YOR035C): 1.0
The level of expressed mRNA in the presence of chemical substance/The level of expressed mRNA in the absence of chemical substance (yeast gene YOR130C): 0.8
The level of expressed mRNA in the presence of chemical substance/The level of expressed mRNA in the absence of chemical substance (yeast gene YOR153W): 0.5
The level of expressed mRNA in the presence of chemical substance/The level of expressed mRNA in the absence of chemical substance (yeast gene YOR273C): 0.6
The level of expressed mRNA in the presence of chemical substance/The level of expressed mRNA in the absence of chemical substance (yeast gene YOR316C): 0.8
The level of expressed mRNA in the presence of chemical substance/The level of expressed mRNA in the absence of chemical substance (yeast gene YOR332W): 1.5
The level of expressed mRNA in the presence of chemical substance/The level of expressed mRNA in the absence of chemical substance (yeast gene YOR348C): 0.8
The level of expressed mRNA in the presence of chemical substance/The level of expressed mRNA in the absence of chemical substance (yeast gene YPL036W): 0.5
The level of expressed mRNA in the presence of chemical substance/The level of expressed mRNA in the absence of chemical substance (yeast gene YPL134C): 1.3
The level of expressed mRNA in the presence of chemical substance/The level of expressed mRNA in the absence of chemical substance (yeast gene YPL271W): 0.9
The level of expressed mRNA in the presence of chemical substance/The level of expressed mRNA in the absence of chemical substance (yeast gene YPR192W): 0.6
The level of expressed mRNA in the presence of chemical substance/The level of expressed mRNA in the absence of chemical substance (yeast gene YPR194C): 1.0
